Test results reported in US20220324909A1, “THERAPEUTIC PEPTIDES” (COHBAR, INC., priority 2019, published 2022).
Non-standard residues stand in square brackets, D forms with d. No end group written: not given here.

Tests used:
3T3-L1 mouse adipocytes = experiment: Free fatty acid levels in cultured 3T3-L1 mouse adipocytes and insulin dependence (Example 17); format: cell-based; settings: isoproterenol 0.1 nM; for Free Fatty Acid Levels, Percent of Isoproterenol Control Activity No Insulin: peptide 10 μM alone, relative to isoproterenol treated cells; for Free Fatty Acid Levels, Percent of Isoproterenol Control Activity With Insulin: peptide 10 μM with 0.25 nM insulin, relative to 0.25 nM insulin treated cells
Description: The effect of the peptides on fatty acid metabolism can be assessed using an assay to monitor free fatty acid levels produced by cultured cells such as mouse adipocytes. […] Following 3 h incubation, conditioned medium from each well was transferred to a fresh 96-well plate. […] Absorbance values were expressed as percent control activity relative to 0.1 nM isoproterenol treated cells (no insulin) for 10 μM peptide alone or 0.25 nM insulin treated cells (with insulin) for 10 μM peptide in presence of 0.25 nM insulin. […] Data are presented as averages values from 2-3 independent experiments with each data point performed in triplicate.

H4-IIE cells = experiment: Glucose production in cultured H4-IIE cells and insulin dependence; format: cell-based, rat; settings: peptide 10 μM alone, 24 h, relative to untreated cells
Description: The effect of the peptides on glucose homeostasis can be assessed using an assay to monitor glucose production by cultured cells such as rat hepatocytes. […] Following 24 h incubation, conditioned medium from each well was transferred to a fresh 96-well plate. Glucose concentrations in the medium were determined using a Glucose Assay kit (Abcam; Cambridge, Mass.) according to the manufacturer's instructions; absorbance measured using a Cytation 3 plate reader at 570 nm (BioTek, Winooski, Vt.). […] Untreated cells were used as reference for maximal glucose production. […] Insulin at 800 μM was used as a modest inhibitor glucose production. […] Data are presented as averages values from 2-4 independent experiments with each data point performed in triplicate.

Compound: 47 (MMGMVFQS) [compound 47]
- Free Fatty Acid Levels, Percent of Isoproterenol Control Activity No Insulin (3T3-L1 mouse adipocytes): 101%
- Free Fatty Acid Levels, Percent of Isoproterenol Control Activity With Insulin (3T3-L1 mouse adipocytes): 93%
- Glucose Production, Percent of Control Activity No Insulin (H4-IIE cells): 108.0%

Compound: 44 (MMGMV) [compound 44]
- Free Fatty Acid Levels, Percent of Isoproterenol Control Activity No Insulin (3T3-L1 mouse adipocytes): 103%
- Free Fatty Acid Levels, Percent of Isoproterenol Control Activity With Insulin (3T3-L1 mouse adipocytes): 96%
- Glucose Production, Percent of Control Activity No Insulin (H4-IIE cells): 98.8%

Compound: 39 (RRMMGMVFQSLEG[dA]) [compound 39]
- Free Fatty Acid Levels, Percent of Isoproterenol Control Activity No Insulin (3T3-L1 mouse adipocytes): 97%
- Free Fatty Acid Levels, Percent of Isoproterenol Control Activity With Insulin (3T3-L1 mouse adipocytes): 67%
- Glucose Production, Percent of Control Activity No Insulin (H4-IIE cells): 103.9%

Compound: 48 (MMGMVFQSL) [compound 48]
- Free Fatty Acid Levels, Percent of Isoproterenol Control Activity No Insulin (3T3-L1 mouse adipocytes): 92%
- Free Fatty Acid Levels, Percent of Isoproterenol Control Activity With Insulin (3T3-L1 mouse adipocytes): 93%
- Glucose Production, Percent of Control Activity No Insulin (H4-IIE cells): 110.0%

Compound: 58 (RRMMGMVFQ) [compound 58]
- Free Fatty Acid Levels, Percent of Isoproterenol Control Activity No Insulin (3T3-L1 mouse adipocytes): 110%
- Free Fatty Acid Levels, Percent of Isoproterenol Control Activity With Insulin (3T3-L1 mouse adipocytes): 114%
- Glucose Production, Percent of Control Activity No Insulin (H4-IIE cells): 114.5%

Compound: 55 (RRMMGM) [compound 55]
- Free Fatty Acid Levels, Percent of Isoproterenol Control Activity No Insulin (3T3-L1 mouse adipocytes): 100%
- Free Fatty Acid Levels, Percent of Isoproterenol Control Activity With Insulin (3T3-L1 mouse adipocytes): 90%
- Glucose Production, Percent of Control Activity No Insulin (H4-IIE cells): 92.6%

Compound: CC[C@H](C)[C@H](NC(=O)CNC(=O)[C@@H](NC(=O)[C@@H](NC(=O)[C@H](CCCNC(=N)N)NC(=O)[C@@H](N)CCCNC(=N)N)[C@@H](C)CC)[C@@H](C)CC)C(=O)N[C@H](C(=O)N[C@@H](Cc1ccccc1)C(=O)N[C@@H](CCC(N)=O)C(=O)N[C@@H](CO)C(=O)N[C@@H](CC(C)C)C(=O)N[C@@H](CS)C(=O)NCC(=O)N[C@H](C)C(=O)O)C(C)C [compound 43]
- Free Fatty Acid Levels, Percent of Isoproterenol Control Activity No Insulin (3T3-L1 mouse adipocytes): 103%
- Free Fatty Acid Levels, Percent of Isoproterenol Control Activity With Insulin (3T3-L1 mouse adipocytes): 91%
- Glucose Production, Percent of Control Activity No Insulin (H4-IIE cells): 115.8%

Compound: 60 (RRMMGMVFQSL) [compound 60]
- Free Fatty Acid Levels, Percent of Isoproterenol Control Activity No Insulin (3T3-L1 mouse adipocytes): 110%
- Free Fatty Acid Levels, Percent of Isoproterenol Control Activity With Insulin (3T3-L1 mouse adipocytes): 101%
- Glucose Production, Percent of Control Activity No Insulin (H4-IIE cells): 115.9%

Compound: 61 (Ac-RRMMGMVFQSLCG[dA]) [compound 61]
- Free Fatty Acid Levels, Percent of Isoproterenol Control Activity No Insulin (3T3-L1 mouse adipocytes): 112%
- Free Fatty Acid Levels, Percent of Isoproterenol Control Activity With Insulin (3T3-L1 mouse adipocytes): 143%
- Glucose Production, Percent of Control Activity No Insulin (H4-IIE cells): 122.7%

Compound: 45 (MMGMVF) [compound 45]
- Free Fatty Acid Levels, Percent of Isoproterenol Control Activity No Insulin (3T3-L1 mouse adipocytes): 105%
- Free Fatty Acid Levels, Percent of Isoproterenol Control Activity With Insulin (3T3-L1 mouse adipocytes): 89%
- Glucose Production, Percent of Control Activity No Insulin (H4-IIE cells): 106.9%

Compound: 34 (RXMMGMVFQSLCGA; (2)..(2) Xaa is Aib (alpha-aminoisobutyric acid); (14)..(14) D-Ala) [compound 34]
- Free Fatty Acid Levels, Percent of Isoproterenol Control Activity No Insulin (3T3-L1 mouse adipocytes): 104%
- Free Fatty Acid Levels, Percent of Isoproterenol Control Activity With Insulin (3T3-L1 mouse adipocytes): 122%
- Glucose Production, Percent of Control Activity No Insulin (H4-IIE cells): 96.9%

Compound: 63 (Ac-RRMMGMVFQSLCG[dA]-NH2) [compound 63]
- Free Fatty Acid Levels, Percent of Isoproterenol Control Activity No Insulin (3T3-L1 mouse adipocytes): 112%
- Free Fatty Acid Levels, Percent of Isoproterenol Control Activity With Insulin (3T3-L1 mouse adipocytes): 92%
- Glucose Production, Percent of Control Activity No Insulin (H4-IIE cells): 107.5%

Compound: 57 (RRMMGMVF) [compound 57]
- Free Fatty Acid Levels, Percent of Isoproterenol Control Activity No Insulin (3T3-L1 mouse adipocytes): 96%
- Free Fatty Acid Levels, Percent of Isoproterenol Control Activity With Insulin (3T3-L1 mouse adipocytes): 87%
- Glucose Production, Percent of Control Activity No Insulin (H4-IIE cells): 98.3%

Compound: 41 (RRLLGLVFQSLEG[dA]) [compound 41]
- Free Fatty Acid Levels, Percent of Isoproterenol Control Activity No Insulin (3T3-L1 mouse adipocytes): 97%
- Free Fatty Acid Levels, Percent of Isoproterenol Control Activity With Insulin (3T3-L1 mouse adipocytes): 73%
- Glucose Production, Percent of Control Activity No Insulin (H4-IIE cells): 122.7%

Compound: 56 (RRMMGMV) [compound 56]
- Free Fatty Acid Levels, Percent of Isoproterenol Control Activity No Insulin (3T3-L1 mouse adipocytes): 99%
- Free Fatty Acid Levels, Percent of Isoproterenol Control Activity With Insulin (3T3-L1 mouse adipocytes): 94%
- Glucose Production, Percent of Control Activity No Insulin (H4-IIE cells): 97.1%

Compound: 53 (RMMGMVFQSL) [compound 53]
- Free Fatty Acid Levels, Percent of Isoproterenol Control Activity No Insulin (3T3-L1 mouse adipocytes): 101%
- Free Fatty Acid Levels, Percent of Isoproterenol Control Activity With Insulin (3T3-L1 mouse adipocytes): 81%
- Glucose Production, Percent of Control Activity No Insulin (H4-IIE cells): 91.9%

Compound: 62 (RRMMGMVFQSLCG[dA]-NH2) [compound 62]
- Free Fatty Acid Levels, Percent of Isoproterenol Control Activity No Insulin (3T3-L1 mouse adipocytes): 112%
- Free Fatty Acid Levels, Percent of Isoproterenol Control Activity With Insulin (3T3-L1 mouse adipocytes): 109%
- Glucose Production, Percent of Control Activity No Insulin (H4-IIE cells): 105.6%

Compound: 38 (RRMMGMVEQSLCG[dA]) [compound 38]
- Free Fatty Acid Levels, Percent of Isoproterenol Control Activity No Insulin (3T3-L1 mouse adipocytes): 101%
- Free Fatty Acid Levels, Percent of Isoproterenol Control Activity With Insulin (3T3-L1 mouse adipocytes): 68%
- Glucose Production, Percent of Control Activity No Insulin (H4-IIE cells): 98.5%

Compound: 59 (RRMMGMVFQS) [compound 59]
- Free Fatty Acid Levels, Percent of Isoproterenol Control Activity No Insulin (3T3-L1 mouse adipocytes): 111%
- Free Fatty Acid Levels, Percent of Isoproterenol Control Activity With Insulin (3T3-L1 mouse adipocytes): 114%
- Glucose Production, Percent of Control Activity No Insulin (H4-IIE cells): 114.0%

Compound: 52 (RMMGMVFQS) [compound 52]
- Free Fatty Acid Levels, Percent of Isoproterenol Control Activity No Insulin (3T3-L1 mouse adipocytes): 102%
- Free Fatty Acid Levels, Percent of Isoproterenol Control Activity With Insulin (3T3-L1 mouse adipocytes): 79%
- Glucose Production, Percent of Control Activity No Insulin (H4-IIE cells): 108.4%

Compound: 54 (RMMGMVFQSLCG[dA]) [compound 54]
- Free Fatty Acid Levels, Percent of Isoproterenol Control Activity No Insulin (3T3-L1 mouse adipocytes): 102%
- Free Fatty Acid Levels, Percent of Isoproterenol Control Activity With Insulin (3T3-L1 mouse adipocytes): 75%
- Glucose Production, Percent of Control Activity No Insulin (H4-IIE cells): 112.8%

Compound: 35 (RXLLGLVFQSLCGA; (2)..(2) Xaa is Aib (alpha-aminoisobutyric acid); (14)..(14) D-Ala) [compound 35]
- Free Fatty Acid Levels, Percent of Isoproterenol Control Activity No Insulin (3T3-L1 mouse adipocytes): 101%
- Free Fatty Acid Levels, Percent of Isoproterenol Control Activity With Insulin (3T3-L1 mouse adipocytes): 112%
- Glucose Production, Percent of Control Activity No Insulin (H4-IIE cells): 98.1%

Compound: 40 (RRLLGLVEQSLCG[dA]) [compound 40]
- Free Fatty Acid Levels, Percent of Isoproterenol Control Activity No Insulin (3T3-L1 mouse adipocytes): 101%
- Free Fatty Acid Levels, Percent of Isoproterenol Control Activity With Insulin (3T3-L1 mouse adipocytes): 76%
- Glucose Production, Percent of Control Activity No Insulin (H4-IIE cells): 109.6%

Compound: 46 (MMGMVFQ) [compound 46]
- Free Fatty Acid Levels, Percent of Isoproterenol Control Activity No Insulin (3T3-L1 mouse adipocytes): 98%
- Free Fatty Acid Levels, Percent of Isoproterenol Control Activity With Insulin (3T3-L1 mouse adipocytes): 104%
- Glucose Production, Percent of Control Activity No Insulin (H4-IIE cells): 105.0%

Compound: 51 (RMMGMVFQ) [compound 51]
- Free Fatty Acid Levels, Percent of Isoproterenol Control Activity No Insulin (3T3-L1 mouse adipocytes): 99%
- Free Fatty Acid Levels, Percent of Isoproterenol Control Activity With Insulin (3T3-L1 mouse adipocytes): 79%
- Glucose Production, Percent of Control Activity No Insulin (H4-IIE cells): 106.1%

Compound: 50 (RMMGMVF) [compound 50]
- Free Fatty Acid Levels, Percent of Isoproterenol Control Activity No Insulin (3T3-L1 mouse adipocytes): 103%
- Free Fatty Acid Levels, Percent of Isoproterenol Control Activity With Insulin (3T3-L1 mouse adipocytes): 101%
- Glucose Production, Percent of Control Activity No Insulin (H4-IIE cells): 99.8%

Compound: 49 (MMGMVFQSLCG[dA]) [compound 49]
- Free Fatty Acid Levels, Percent of Isoproterenol Control Activity No Insulin (3T3-L1 mouse adipocytes): 101%
- Free Fatty Acid Levels, Percent of Isoproterenol Control Activity With Insulin (3T3-L1 mouse adipocytes): 103%
- Glucose Production, Percent of Control Activity No Insulin (H4-IIE cells): 120.1%

Compound: 33 (RRLLGLVFQSLCG[dA]) [compound 33]
- Free Fatty Acid Levels, Percent of Isoproterenol Control Activity No Insulin (3T3-L1 mouse adipocytes): 98%
- Free Fatty Acid Levels, Percent of Isoproterenol Control Activity With Insulin (3T3-L1 mouse adipocytes): 80%
- Glucose Production, Percent of Control Activity No Insulin (H4-IIE cells): 113.8%
